Experimental data: publication PMC2362940 (British Journal of Cancer, 1999)
Entries after “also recorded” stand apart in the source; their conditions may differ. Like-named read-outs stand apart in the source and are kept apart here. Each block holds one molecule with its values, some of them ahead of it.

How the values were obtained:
[1] = tested on: MCF-7/ADR cells; assay: MTT cytotoxicity of taxol with P-gp inhibitors at 10% or 50% FCS in MCF-7/ADR cells; format: cell-based, human; settings: for Resistance of MCF-7/ADR cells: MA Russell and DR Ferry, unpublished data; for EC50: Homo sapiens, NCI/ADR-RES
[2] = tested on: P388/Dox leukaemia or C26 colon carcinoma; design: method as in Hyafil et al, 1993; settings: single dose of GF120918; ref Hyafil et al, 1993; cited from earlier work
[3] = tested on: MES-Dx5 cells; assay: Reversal of MES-Dx5 resistance to cytotoxics by P-gp inhibitor (MTT assay, % maximal shift); format: cell-based, human; settings: for EC50: Homo sapiens, MES-Dx5, MTT 72 h
[4] = tested on: MES-SA cells; assay: Radiolabelled drug accumulation assay in MES-SA cells; format: cell-based, human; settings: data not shown
[5] = tested on: COR-L23 R; assay: Sensitization of MRP1-expressing COR-L23 R cells to doxorubicin; format: cell-based; settings: 1 M (µM) GF120918, unpublished data
[6] = tested on: MES-Dx5 cells; assay: MTT dye-based cytotoxicity assay, 72-h exposure, P-gp-expressing MES-Dx5 cells; format: cell-based, human; settings: for EC50: Homo sapiens, read-out: EC50 of cytotoxic drug in MES-Dx5 cells; for EC50 / Resistance factor (RF) of MES-Dx5 relative to MES-SA cells: MTT
[7] = tested on: P-gp; design: method as in Hyafil et al, 1993; settings: ref Hyafil et al, 1993; cited from earlier work
[8] = tested on: P-gp; assay: Radiolabelled drug accumulation assay in MES-Dx5 cells; format: cell-based, human; settings: human, MES-Dx5 cells (P-gp-expressing); read-out: EC50 for reversal of the accumulation deficit, range over all three radiolabelled cytotoxics
[9] = tested on: MES-Dx5 cells; assay: as above; format: cell-based, human; settings: for EC50: Homo sapiens, MES-Dx5, 4 h; for Accumulation deficit of MES-Dx5 relative to parental MES-SA cells: steady state
[10] = biological target: T1, P-gp in MES-Dx5 membranes (Homo sapiens, UniProt P08183)
T1 sequence (P08183 whole entry): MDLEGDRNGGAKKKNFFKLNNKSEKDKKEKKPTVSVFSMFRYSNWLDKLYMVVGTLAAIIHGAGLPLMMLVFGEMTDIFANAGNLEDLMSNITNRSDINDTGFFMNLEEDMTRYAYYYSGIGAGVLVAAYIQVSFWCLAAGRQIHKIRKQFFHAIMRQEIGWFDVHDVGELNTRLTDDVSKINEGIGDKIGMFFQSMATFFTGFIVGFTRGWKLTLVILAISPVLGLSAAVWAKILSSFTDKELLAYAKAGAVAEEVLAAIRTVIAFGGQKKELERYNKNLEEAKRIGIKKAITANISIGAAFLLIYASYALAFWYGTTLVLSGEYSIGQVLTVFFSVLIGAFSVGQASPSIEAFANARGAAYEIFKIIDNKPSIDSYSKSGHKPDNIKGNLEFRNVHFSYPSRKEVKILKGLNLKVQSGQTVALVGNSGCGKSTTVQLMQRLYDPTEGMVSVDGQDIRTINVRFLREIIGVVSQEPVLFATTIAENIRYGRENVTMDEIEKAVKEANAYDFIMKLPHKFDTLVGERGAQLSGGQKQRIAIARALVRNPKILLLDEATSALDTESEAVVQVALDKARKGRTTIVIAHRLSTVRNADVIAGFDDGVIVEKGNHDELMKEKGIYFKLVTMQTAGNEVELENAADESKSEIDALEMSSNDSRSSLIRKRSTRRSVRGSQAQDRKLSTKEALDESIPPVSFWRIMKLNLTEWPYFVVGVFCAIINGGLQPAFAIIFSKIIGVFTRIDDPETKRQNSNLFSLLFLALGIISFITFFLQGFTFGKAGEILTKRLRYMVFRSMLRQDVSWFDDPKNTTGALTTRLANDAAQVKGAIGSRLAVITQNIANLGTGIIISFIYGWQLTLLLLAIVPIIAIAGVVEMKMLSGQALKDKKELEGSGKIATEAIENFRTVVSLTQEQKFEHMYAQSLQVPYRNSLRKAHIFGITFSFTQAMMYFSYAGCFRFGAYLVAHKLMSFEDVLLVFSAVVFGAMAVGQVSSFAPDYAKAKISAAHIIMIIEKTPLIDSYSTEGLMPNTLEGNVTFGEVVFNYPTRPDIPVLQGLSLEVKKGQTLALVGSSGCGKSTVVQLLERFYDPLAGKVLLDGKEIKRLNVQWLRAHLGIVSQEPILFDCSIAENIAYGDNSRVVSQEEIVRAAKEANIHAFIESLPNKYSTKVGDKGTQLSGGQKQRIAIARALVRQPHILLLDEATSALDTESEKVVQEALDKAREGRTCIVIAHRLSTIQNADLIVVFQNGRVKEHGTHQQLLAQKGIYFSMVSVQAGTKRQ

[11] = biological target: P-gp (Homo sapiens, UniProt P08183); assay: in vitro; settings: membrane preparations of MES-Dx5 cells (P-gp-expressing), MES-Dx5 membranes
Sequence of P-gp (P08183 whole entry): as above

[12] = tested on: MES-SA cells; assay: MTT dye-based cytotoxicity assay, 72-h exposure, parental MES-SA cells; settings: Homo sapiens, read-out: EC50 of cytotoxic drug in MES-SA cells
[13] = biological target: T1, P-gp in MES-Dx5 membranes; assay: biochemical
[14] = tested on: MCF-7 WT cells; assay: cells; settings: Homo sapiens, MCF7, 72 h
[15] = tested on: MCF-7 WT cells
[16] = inhibition of [3H]-vinblastine binding, single representative experiment, Figure 7B, 5 nM [3H]-vinblastine

SMILES: CO[C@@H]1[C@H](N(C)C(=O)c2ccccc2)C[C@H]2O[C@]1(C)n1c3ccccc3c3c4c(c5c6ccccc6n2c5c31)C(=O)NC4 [CGP 41251]
Ratio of EC50s (50% FCS vs 10% FCS) in presence of P-gp inhibitor ([1]; MCF-7/ADR, taxol, MTT 72 h): 30 fold

SMILES: COC(=O)C1=C(C)NC(C)=C(C(=O)OCCCN2CCC(c3ccccc3)(c3ccccc3)CC2)[C@@H]1c1cccc([N+](=O)[O-])c1 [Dexniguldipine]
Ratio of EC50s (50% FCS vs 10% FCS) in presence of P-gp inhibitor [1]: 37 fold

EC50 ([9]; read-out: [GF120918] reverses accumulation-deficit by 50%, [3H]-vinblastine): 48 nM
SMILES: COc1cc2c(cc1OC)CN(CCc1ccc(NC(=O)c3cccc4c(=O)c5cccc(OC)c5[nH]c34)cc1)CC2 [GF120918]
Sensitization of xenograft-bearing mice to doxorubicin [2]: sensitized mice
EC50 ([3]; read-out: EC50 of GF120918 to reverse resistance (shifts sensitivity by 50%) to doxorubicin, cytotoxic doxorubicin): 21 ± 6 nM
EC50 ([3]; read-out: EC50 of GF120918 to reverse resistance (shifts sensitivity by 50%) to etoposide, cytotoxic etoposide): 7 ± 2 nM
EC50 ([3]; read-out: EC50 of GF120918 to reverse resistance (shifts sensitivity by 50%) to taxol, cytotoxic taxol): 91 ± 23 nM
EC50 ([3]; read-out: EC50 of GF120918 to reverse resistance (shifts sensitivity by 50%) to taxotere, cytotoxic taxotere): 57 ± 14 nM
EC50 ([3]; read-out: EC50 of GF120918 to reverse resistance (shifts sensitivity by 50%) to vinblastine, cytotoxic vinblastine): 19 ± 3 nM
Extent of reversal of MES-Dx5 resistance, all tested cytotoxic drugs ([3]; to level of parental MES-SA cells): reversed resistance completely; also recorded: fully reverse resistance
Effect on cellular content of radiolabelled cytotoxics in sensitive MES-SA cells [4]: did not increase
Sensitization of COR-L23 R (MRP1, not P-gp) to doxorubicin [5]: not sensitized
Cytotoxic effect of GF120918 alone ([6]; MTT assay): did not produce a cytotoxic effect

SMILES: C/C=C/C[C@@H](C)C(=O)[C@H]1C(=O)N[C@@H](C(C)C)C(=O)N(C)CC(=O)N(C)[C@@H](CC(C)C)C(=O)N[C@@H](C(C)C)C(=O)N(C)[C@@H](CC(C)C)C(=O)N[C@@H](C)C(=O)N[C@H](C)C(=O)N(C)[C@@H](CC(C)C)C(=O)N(C)[C@@H](CC(C)C)C(=O)N(C)[C@@H](C(C)C)C(=O)N1C [PSC 833]
Ratio of EC50s (50% FCS vs 10% FCS) in presence of P-gp inhibitor ([1]; MCF-7/ADR, taxol, MTT 72 h): 19 fold

SMILES: CC(=O)O[C@H]1C(=O)[C@@]2(C)[C@H]([C@H](OC(=O)c3ccccc3)[C@]3(O)C[C@H](OC(=O)[C@H](O)[C@@H](NC(=O)c4ccccc4)c4ccccc4)C(C)=C1C3(C)C)[C@]1(OC(C)=O)CO[C@@H]1C[C@@H]2O [[3 H]-taxol]
Accumulation deficit of MES-Dx5 relative to parental MES-SA cells [9]: 20%

Bmax of [3H]-vinblastine binding in the presence of ATP and MgCl2 ([10]; Figure 6, 1 mM ATP and 3 mM MgCl2, single experiment): 10.9 pmol mg-1 protein
Bmax of [3H]-vinblastine binding, single representative experiment ([10]; Figure 6, control without ATP/MgCl2): 8.6 pmol mg-1 protein
Bmax of [3H]-vinblastine binding (mean) ([10]; MES-Dx5 membranes): 5.2 pmol mg-1 protein
Bmax of [3H]-vinblastine binding (mean) ([10]; MES-Dx5 membranes, listed as [^3H]-vinblastine): 5.2 ± 1.6 pmol mg-1 protein
Kd ([11]; KD of [3H]-vinblastine binding, saturation analysis (mean)): 7.8 ± 1.4 nM
SMILES: CC[C@]1(O)C[C@@H]2CN(CCc3c([nH]c4ccccc34)[C@@](C(=O)OC)(c3cc4c(cc3OC)N(C)[C@H]3[C@@](O)(C(=O)OC)[C@H](OC(C)=O)[C@]5(CC)C=CCN6CC[C@]43[C@@H]65)C2)C1 [[3 H]-vinblastine]

SMILES: COc1cccc2c1C(=O)c1c(O)c3c(c(O)c1C2=O)C[C@@](O)(C(=O)CO)C[C@@H]3O[C@H]1C[C@H](N)[C@H](O)[C@H](C)O1 [[14 C]-doxorubicin]
Accumulation deficit of MES-Dx5 relative to parental MES-SA cells [9]: 20%

SMILES: COc1cccc2c1C(=O)c1c(O)c3c(c(O)c1C2=O)C[C@@](O)(C(=O)CO)C[C@@H]3O[C@H]1C[C@H](N)[C@H](O)[C@H](C)O1 [doxorubicin]
Resistance of MCF-7/ADR cells [1]: 200 fold
EC50 [12]: 58 nM
Ki ([13]; inhibition of [3H]-vinblastine binding to P-gp (mean), MES-Dx5 membranes, 21C): 6940 ± 2100 nM
Ki [13, 16]: 112000 nM
EC50 [6]: 534 nM

SMILES: COc1cc([C@@H]2c3cc4c(cc3[C@@H](O[C@@H]3O[C@@H]5CO[C@@H](C)O[C@H]5[C@H](O)[C@H]3O)[C@H]3COC(=O)[C@H]23)OCO4)cc(OC)c1O [etoposide]
EC50 [12]: 3000 nM
EC50 [6]: 6850 nM

SMILES: CC(=O)O[C@H]1C(=O)[C@@]2(C)[C@H]([C@H](OC(=O)c3ccccc3)[C@]3(O)C[C@H](OC(=O)[C@H](O)[C@@H](NC(=O)c4ccccc4)c4ccccc4)C(C)=C1C3(C)C)[C@]1(OC(C)=O)CO[C@@H]1C[C@@H]2O [taxol]
EC50 ([1]; read-out: EC50 of taxol without inhibitor, 10% FCS, MCF-7/ADR, MTT 72 h): 8500 nM
EC50 ([1]; read-out: EC50 of taxol without inhibitor, 50% FCS, MCF-7/ADR, MTT 72 h): 4600 nM
Resistance of MCF-7/ADR cells [1]: 1000 fold
EC50 [12]: 5 nM
EC50 ([14]; read-out: EC50 of taxol without inhibitor, 10% FCS): 6 nM
EC50 ([14]; read-out: EC50 of taxol without inhibitor, 50% FCS): 5 nM
Ki [13, 16]: 96 nM
EC50 [6]: 470 nM
Resistance factor (RF) of MES-Dx5 relative to MES-SA cells [6]: 94 fold
Ratio of EC50s (50% FCS vs 10% FCS), taxol without inhibitor [15]: 0.84
Maximal displacement of [3H]-vinblastine bound to P-gp ([10]; MES-Dx5 membranes, allosteric inhibitor): 40%
Ki at 3 h ([11]; probe [3H]-vinblastine, Ki, inhibition of [3H]-vinblastine binding to P-gp (mean), 3 h, 21C): 400 ± 140 nM

SMILES: CC(=O)O[C@@]12CO[C@@H]1C[C@H](O)[C@@]1(C)C(=O)[C@H](O)C3=C(C)[C@@H](OC(=O)[C@H](O)[C@@H](NC(=O)OC(C)(C)C)c4ccccc4)C[C@@](O)([C@@H](OC(=O)c4ccccc4)[C@H]21)C3(C)C [taxotere]
EC50 [12]: 5 nM
EC50 [6]: 93 nM
Resistance factor (RF) of MES-Dx5 relative to MES-SA cells [6]: 19 fold

SMILES: CC[C@]1(O)C[C@@H]2CN(CCc3c([nH]c4ccccc34)[C@@](C(=O)OC)(c3cc4c(cc3OC)N(C)[C@H]3[C@@](O)(C(=O)OC)[C@H](OC(C)=O)[C@]5(CC)C=CCN6CC[C@]43[C@@H]65)C2)C1 [vinblastine]
EC50 [12]: 3 nM
EC50 [6]: 30 nM
